# From PMC7549094 (Journal of Medicinal Chemistry, 2020)
# How the values were obtained:
# hr TP antag = biological target: T1, hr TP antag (Homo sapiens, UniProt P21731); assay: receptor profile (Table S4); format: biochemical
# T1 sequence (P21731 1-343): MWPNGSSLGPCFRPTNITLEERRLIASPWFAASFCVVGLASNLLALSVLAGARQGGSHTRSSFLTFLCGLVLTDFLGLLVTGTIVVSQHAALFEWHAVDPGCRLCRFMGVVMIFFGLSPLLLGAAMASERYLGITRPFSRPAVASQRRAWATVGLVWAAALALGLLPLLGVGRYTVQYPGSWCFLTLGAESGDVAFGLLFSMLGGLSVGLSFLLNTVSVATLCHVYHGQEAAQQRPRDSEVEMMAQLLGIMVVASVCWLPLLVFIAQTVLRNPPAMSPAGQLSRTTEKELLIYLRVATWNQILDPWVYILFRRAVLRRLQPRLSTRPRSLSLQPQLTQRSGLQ
# hr PDE4D = hr PDE4D (Homo sapiens, UniProt Q08499); assay: receptor profile (Table S4); format: biochemical
# hr PDE4D, sequence (Q08499 whole entry): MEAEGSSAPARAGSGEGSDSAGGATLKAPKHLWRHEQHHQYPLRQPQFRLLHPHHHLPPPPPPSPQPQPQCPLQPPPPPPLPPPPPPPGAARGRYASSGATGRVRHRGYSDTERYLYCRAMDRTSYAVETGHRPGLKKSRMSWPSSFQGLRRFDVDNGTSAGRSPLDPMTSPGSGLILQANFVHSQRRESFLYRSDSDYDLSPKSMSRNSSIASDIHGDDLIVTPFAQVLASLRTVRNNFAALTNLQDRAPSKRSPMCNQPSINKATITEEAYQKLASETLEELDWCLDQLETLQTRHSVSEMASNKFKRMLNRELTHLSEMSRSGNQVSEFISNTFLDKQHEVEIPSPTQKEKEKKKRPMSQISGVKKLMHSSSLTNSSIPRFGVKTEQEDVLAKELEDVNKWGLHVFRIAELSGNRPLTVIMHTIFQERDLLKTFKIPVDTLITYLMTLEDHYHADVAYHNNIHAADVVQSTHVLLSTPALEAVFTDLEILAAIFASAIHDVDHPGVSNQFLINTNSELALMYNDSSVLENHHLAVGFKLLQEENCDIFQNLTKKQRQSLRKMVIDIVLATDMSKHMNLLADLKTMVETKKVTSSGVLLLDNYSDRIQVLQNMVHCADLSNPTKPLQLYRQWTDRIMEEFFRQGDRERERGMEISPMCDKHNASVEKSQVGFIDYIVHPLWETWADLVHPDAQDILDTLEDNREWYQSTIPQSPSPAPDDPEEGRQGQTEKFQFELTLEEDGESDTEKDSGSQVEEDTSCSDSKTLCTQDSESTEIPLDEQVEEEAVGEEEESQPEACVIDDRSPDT
# PXR = PXR (Homo sapiens, UniProt O75469); assay: receptor profile (Table S4); conditions: human
# PXR, sequence (O75469 whole entry): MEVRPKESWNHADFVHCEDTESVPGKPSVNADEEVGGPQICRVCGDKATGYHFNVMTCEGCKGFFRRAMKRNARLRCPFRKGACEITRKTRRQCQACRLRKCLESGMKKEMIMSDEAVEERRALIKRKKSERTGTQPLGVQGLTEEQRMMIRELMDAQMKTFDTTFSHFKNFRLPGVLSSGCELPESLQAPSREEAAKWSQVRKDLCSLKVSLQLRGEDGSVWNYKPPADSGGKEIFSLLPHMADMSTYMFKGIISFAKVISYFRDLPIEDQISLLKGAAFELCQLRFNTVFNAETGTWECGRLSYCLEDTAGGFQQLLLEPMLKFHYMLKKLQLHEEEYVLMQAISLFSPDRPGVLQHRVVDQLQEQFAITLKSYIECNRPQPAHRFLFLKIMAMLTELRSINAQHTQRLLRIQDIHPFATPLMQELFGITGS
# hr KDR = hr KDR (Homo sapiens, UniProt P35968); assay: receptor profile (Table S4); format: biochemical
# hr KDR, sequence (P35968 20-1356): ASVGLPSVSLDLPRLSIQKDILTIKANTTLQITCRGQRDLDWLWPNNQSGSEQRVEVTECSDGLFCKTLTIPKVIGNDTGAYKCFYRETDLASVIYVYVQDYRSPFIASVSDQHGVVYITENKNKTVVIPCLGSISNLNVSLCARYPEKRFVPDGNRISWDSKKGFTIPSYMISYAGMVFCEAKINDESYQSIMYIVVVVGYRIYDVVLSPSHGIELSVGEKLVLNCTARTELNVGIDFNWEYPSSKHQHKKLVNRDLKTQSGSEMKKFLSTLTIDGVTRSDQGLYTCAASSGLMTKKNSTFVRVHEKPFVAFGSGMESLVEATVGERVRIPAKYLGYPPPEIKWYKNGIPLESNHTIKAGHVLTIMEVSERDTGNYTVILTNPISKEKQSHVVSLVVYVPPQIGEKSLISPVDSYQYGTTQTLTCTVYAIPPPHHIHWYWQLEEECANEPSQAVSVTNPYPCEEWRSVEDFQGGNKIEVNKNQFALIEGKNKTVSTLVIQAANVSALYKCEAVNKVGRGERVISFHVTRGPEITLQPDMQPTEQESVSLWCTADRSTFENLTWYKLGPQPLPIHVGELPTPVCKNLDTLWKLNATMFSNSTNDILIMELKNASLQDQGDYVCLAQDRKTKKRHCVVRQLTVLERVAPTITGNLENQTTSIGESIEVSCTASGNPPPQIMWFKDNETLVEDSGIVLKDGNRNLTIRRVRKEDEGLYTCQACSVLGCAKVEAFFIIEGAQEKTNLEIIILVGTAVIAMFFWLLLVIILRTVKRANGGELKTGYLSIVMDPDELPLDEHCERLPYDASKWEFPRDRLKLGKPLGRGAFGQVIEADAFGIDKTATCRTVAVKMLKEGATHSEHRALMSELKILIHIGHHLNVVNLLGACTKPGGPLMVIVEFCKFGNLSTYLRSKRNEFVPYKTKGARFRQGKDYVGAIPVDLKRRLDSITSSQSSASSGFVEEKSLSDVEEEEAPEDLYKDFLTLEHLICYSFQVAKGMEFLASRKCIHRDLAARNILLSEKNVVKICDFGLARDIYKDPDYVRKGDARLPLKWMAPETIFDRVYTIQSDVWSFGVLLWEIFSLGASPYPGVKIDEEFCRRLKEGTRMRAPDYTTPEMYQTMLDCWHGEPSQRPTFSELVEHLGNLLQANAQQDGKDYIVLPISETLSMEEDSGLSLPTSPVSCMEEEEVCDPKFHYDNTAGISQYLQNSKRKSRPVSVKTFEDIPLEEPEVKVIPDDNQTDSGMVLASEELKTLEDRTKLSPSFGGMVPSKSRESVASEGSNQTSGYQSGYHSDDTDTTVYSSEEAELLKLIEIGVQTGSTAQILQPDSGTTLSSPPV
# hr Al1A antag = biological target: T2, hr Al1A antag (Homo sapiens, UniProt P35348); assay: receptor profile (Table S4); format: biochemical
# T2 sequence (P35348 1-466): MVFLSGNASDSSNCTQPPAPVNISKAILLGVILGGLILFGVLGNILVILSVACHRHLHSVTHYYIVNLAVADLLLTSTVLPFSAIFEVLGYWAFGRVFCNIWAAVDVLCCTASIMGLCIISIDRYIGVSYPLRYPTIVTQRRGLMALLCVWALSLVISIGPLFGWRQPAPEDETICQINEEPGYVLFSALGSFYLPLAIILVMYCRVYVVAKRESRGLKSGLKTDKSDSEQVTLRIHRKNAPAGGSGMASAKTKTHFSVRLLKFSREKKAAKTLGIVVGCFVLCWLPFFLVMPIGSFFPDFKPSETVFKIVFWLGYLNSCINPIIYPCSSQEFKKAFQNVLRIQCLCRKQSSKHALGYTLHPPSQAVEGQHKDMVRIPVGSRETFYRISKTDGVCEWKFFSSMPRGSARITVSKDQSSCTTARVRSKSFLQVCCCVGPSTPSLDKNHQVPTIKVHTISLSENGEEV
# hr D1 ag = hr D1 ag (Homo sapiens, UniProt P21728); assay: receptor profile (Table S4); format: biochemical
# hr D1 ag, sequence (P21728 whole entry): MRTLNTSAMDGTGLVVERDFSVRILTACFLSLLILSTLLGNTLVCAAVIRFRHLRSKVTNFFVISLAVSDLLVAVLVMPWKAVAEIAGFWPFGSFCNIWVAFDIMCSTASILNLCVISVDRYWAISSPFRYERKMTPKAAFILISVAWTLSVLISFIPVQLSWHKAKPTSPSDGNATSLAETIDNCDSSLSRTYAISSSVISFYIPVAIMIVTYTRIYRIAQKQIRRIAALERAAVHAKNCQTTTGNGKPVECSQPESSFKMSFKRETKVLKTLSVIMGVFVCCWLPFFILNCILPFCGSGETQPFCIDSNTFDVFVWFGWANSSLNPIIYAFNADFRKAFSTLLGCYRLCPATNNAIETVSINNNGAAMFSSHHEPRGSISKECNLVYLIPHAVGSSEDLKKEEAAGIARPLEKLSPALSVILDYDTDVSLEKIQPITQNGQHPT
# hr H3 = hr H3 (Homo sapiens, UniProt Q9Y5N1); assay: receptor profile (Table S4); format: binding
# hr H3, sequence (Q9Y5N1 whole entry): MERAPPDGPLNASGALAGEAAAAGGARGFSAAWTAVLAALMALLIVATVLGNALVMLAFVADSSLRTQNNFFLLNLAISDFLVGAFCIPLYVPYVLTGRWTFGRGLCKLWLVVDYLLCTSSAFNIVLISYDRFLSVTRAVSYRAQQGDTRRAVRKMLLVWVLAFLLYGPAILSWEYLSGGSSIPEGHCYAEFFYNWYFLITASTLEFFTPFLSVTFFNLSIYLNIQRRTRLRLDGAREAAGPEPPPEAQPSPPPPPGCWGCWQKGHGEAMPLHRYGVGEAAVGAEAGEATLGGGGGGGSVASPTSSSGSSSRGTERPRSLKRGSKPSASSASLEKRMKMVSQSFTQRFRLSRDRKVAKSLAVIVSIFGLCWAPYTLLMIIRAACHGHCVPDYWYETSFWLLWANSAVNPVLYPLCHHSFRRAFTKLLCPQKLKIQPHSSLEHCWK
# [1] = metabolite profile in monkey hepatocytes; format: in vitro ADME; conditions: 10 μM of 1 for 4 h, UV 250 nm, normalized to largest peak
# [2] = dissolution study and supersaturation stability in FASSIF; format: physicochemical
# hr Ad3 = biological target: T3, hr Ad3 (Homo sapiens, UniProt P0DMS8); assay: receptor profile (Table S4); format: binding
# T3 sequence (P0DMS8 1-318): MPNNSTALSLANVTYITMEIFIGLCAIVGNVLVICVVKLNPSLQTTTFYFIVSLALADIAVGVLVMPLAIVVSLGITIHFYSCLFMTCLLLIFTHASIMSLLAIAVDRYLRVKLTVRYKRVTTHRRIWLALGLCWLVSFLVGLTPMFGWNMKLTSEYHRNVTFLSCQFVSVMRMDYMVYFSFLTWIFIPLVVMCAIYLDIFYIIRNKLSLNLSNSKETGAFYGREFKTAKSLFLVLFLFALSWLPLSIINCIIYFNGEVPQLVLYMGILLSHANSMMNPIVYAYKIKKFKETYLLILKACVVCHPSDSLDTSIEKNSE
# [3] = biological target: T4, purified L. donovani proteasome (Leishmania donovani, UniProt A0A3Q8IIY4+A0A3S7XA80); assay: chymotrypsin-like activity of purified L. donovani proteasome; format: biochemical; conditions: half-maximum inhibition of chymotrypsin-like activity of purified L. donovani proteasome; mean, n = 4 technical replicates
# T4 sequence (A0A3Q8IIY4 100-302): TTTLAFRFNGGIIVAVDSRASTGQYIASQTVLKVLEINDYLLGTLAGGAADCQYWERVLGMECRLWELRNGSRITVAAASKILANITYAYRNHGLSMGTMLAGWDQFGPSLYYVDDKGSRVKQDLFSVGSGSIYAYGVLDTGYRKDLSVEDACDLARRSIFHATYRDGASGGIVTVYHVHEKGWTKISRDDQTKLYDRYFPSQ
# T4 sequence (A0A3S7XA80 1-206): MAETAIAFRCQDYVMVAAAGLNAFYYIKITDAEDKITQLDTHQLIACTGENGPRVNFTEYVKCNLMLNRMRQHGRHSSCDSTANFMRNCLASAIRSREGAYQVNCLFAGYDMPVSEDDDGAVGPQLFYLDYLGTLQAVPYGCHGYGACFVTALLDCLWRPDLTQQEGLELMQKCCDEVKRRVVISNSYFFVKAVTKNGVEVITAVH
# hr 5-HT2C = biological target: T5, hr 5-HT2C (Homo sapiens, UniProt P28335); assay: receptor profile (Table S4); format: binding
# T5 sequence (P28335 33-458): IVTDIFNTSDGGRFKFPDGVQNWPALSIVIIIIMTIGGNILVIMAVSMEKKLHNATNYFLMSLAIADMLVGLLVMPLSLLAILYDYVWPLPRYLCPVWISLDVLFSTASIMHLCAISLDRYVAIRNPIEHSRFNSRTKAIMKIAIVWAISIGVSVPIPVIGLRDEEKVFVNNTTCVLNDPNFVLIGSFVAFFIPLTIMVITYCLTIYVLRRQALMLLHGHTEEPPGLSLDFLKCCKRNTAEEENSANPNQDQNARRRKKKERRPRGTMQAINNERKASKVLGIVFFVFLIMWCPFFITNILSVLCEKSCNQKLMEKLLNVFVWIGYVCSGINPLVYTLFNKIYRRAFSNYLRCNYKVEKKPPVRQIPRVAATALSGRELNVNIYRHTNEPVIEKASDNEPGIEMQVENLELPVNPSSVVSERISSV
# [4] = microsomal extraction ratio, 1 h incubation in microsomes
smiles,measurement,setting,value
"Cc1nc(C)c(C(=O)Nc2ccc(F)c(-c3nc4ncc(-c5ncccc5C)cn4n3)c2)o1 [compound 1, N-(4-Fluoro-3-(6-(3-methylpyridin-2-yl)-[1,2,4]triazolo[1,5-a]pyrimidin-2-yl)phenyl)-2,4-dimethyloxazole-5-carboxamide]",EC50/IC50,hr TP antag; hr TP antag,> 30 µM
same,inhibition at 10 µM,hr TP antag; read-out: % inh/act @ 10 µM,14%
same,inhibition at 30 µM,hr TP antag; read-out: % inh/act @ 30 µM,28%
same,EC50/IC50,hr PDE4D; hr PDE4D,> 30 µM
same,inhibition at 10 µM,hr PDE4D; read-out: % inh/act @ 10 µM,35%
same,inhibition at 30 µM,hr PDE4D; read-out: % inh/act @ 30 µM,49%
same,inhibition at 10 µM,PXR,26%
same,EC50/IC50,hr KDR; hr KDR,> 30 µM
same,inhibition at 10 µM,hr KDR; read-out: % inh/act @ 10 µM,21%
same,inhibition at 30 µM,hr KDR; read-out: % inh/act @ 30 µM,22%
same,EC50/IC50,hr Al1A antag; hr Al1A antag,> 30 µM
same,inhibition at 10 µM,hr Al1A antag; read-out: % inh/act @ 10 µM,-4%
same,inhibition at 30 µM,hr Al1A antag; read-out: % inh/act @ 30 µM,8%
same,EC50/IC50,hr D1 ag; hr D1 ag,> 30 µM
same,inhibition at 10 µM,hr D1 ag; read-out: % inh/act @ 10 µM,6%
same,inhibition at 30 µM,hr D1 ag; read-out: % inh/act @ 30 µM,2%
same,EC50/IC50,hr H3; hr H3,> 30 µM
same,inhibition at 10 µM,hr H3; read-out: % inh/act @ 10 µM,9%
same,inhibition at 30 µM,hr H3; read-out: % inh/act @ 30 µM,14%
same,abundance monkey,[1],+++ (+++ > 75%)
same,concentration in FASSIF (supersaturation),"[2]; fumarate cocrystal of 1, FASSIF, at 16 min",73 µM
same,dissolution rate,"[2]; fumarate cocrystal of 1 vs free base of 2, Figure 1",significantly higher dissolution rate
same,EC50/IC50,hr Ad3; hr Ad3,> 30 µM
same,inhibition at 10 µM,hr Ad3; read-out: % inh/act @ 10 µM,8%
same,inhibition at 30 µM,hr Ad3; read-out: % inh/act @ 30 µM,37%
same,IC50,[3],0.04 µM
same,EC50/IC50,hr 5-HT2C; hr 5-HT2C,> 30 µM
same,inhibition at 10 µM,hr 5-HT2C; read-out: % inh/act @ 10 µM,9%
same,inhibition at 30 µM,hr 5-HT2C; read-out: % inh/act @ 30 µM,8%
same,ER rat,[4],< 0.18
